Experimental data: patent US7160880B1, “Short-acting benzodiazepines” (CeNeS Limited, priority 1999, dated 2007)
Where two headings read alike, the source gives them in different places.

Key:
male Wistar rats = assay: Loss of the righting reflex (LRR) in rats; assay type: in vivo, rat; details: i.v. via tail vein, dose in the range of 10–100 mg/kg
Experimental: The intrinsic efficacy of a compound was assessed by its ability to cause loss of the righting reflex (LRR) in rats, an effect associated with benzodiazepine full agonism.
Method: Subjects for these studies were male Wistar rats, weighing approximately 250–350 grams. To assess loss of righting reflex (LRR), animals were placed in plastic restrainers and test compounds were administered i.v. via the tail vain. Subjects were immediately removed from the restrainer and the time to onset of loss of righting reflex was recorded. LRR was defined as the loss of an animal's ability to right itself when placed in a supine position. […] Compounds producing LRR were evaluated by three measures: 1) Time to onset of LRR (as described above) 2) Time to recover from LRR. An animal met this criteria when able to right itself three consecutive times after losing its righting reflex 3) Total recovery time. Total recovery was measured by the animal's ability to walk without ataxia as well as its ability to pull itself up three consecutive times when suspended from a horizontal wire. […] The therapeutically useful dosage range for administration to mammals is 0.01 to 5.0 mg/kg of body weight.

[1] = target: benzodiazepine receptor (benzodiazepine site on the GABAA receptor complex); assay: Benzodiazepine radioligand (3H-flunitrazepam) binding assay
[2] = read-out: Benzodiazepine receptor binding Ki, 3H-flunitrazepam, brain membrane homogenates, 90 minutes at 4° C., tissue species of the tabulated values not stated

In the case of `COC(=O)CC[C@@H]1N=C(c2ccccc2F)c2cc(Cl)ccc2-n2c1cnc2C` (racemic) [Example 1c-18], the “loss of righting reflex (LRR)” value (male Wistar rats) is reported as “producing loss-of-righting” and the Ki [1, 2] is reported as 1 to 50 nM.

`CN1C(=O)CN=C(c2ccccc2Cl)c2cc(Cl)ccc21` [2′-chlorodiazepam, reference compound] showed a Ki ([1]; compound used at 10 μM to define nonspecific binding) of 0.5 nM.

For `COC(=O)CC[C@@H]1N=C(c2ccccc2F)c2cc(Cl)ccc2NC1=O` [Example 1-1, Methyl 3-[(3S)-7-chloro-5-(2-fluorophenyl)-2-oxo-2,3-dihydro-1H-1,4-benzodiazepin-3-yl]propanoate], the “loss of righting reflex (LRR)” value (male Wistar rats) was “producing loss-of-righting” and the Ki [1, 2] was 1 to 50 nM.

Work on `COC(=O)CC[C@@H]1N=C(c2ccccc2F)c2cc(Cl)ccc2NC1=O` [Example 1-2] yielded a Ki [1, 2] of 51 to 100 nM.

With `COC(=O)CC[C@@H]1N=C(c2ccccc2F)c2cc(Br)ccc2NC1=O` [Example 1-3] the “loss of righting reflex (LRR)” value (male Wistar rats) was “producing loss-of-righting” and the Ki [1, 2] was 1 to 50 nM.

`COC(=O)CC[C@H]1N=C(c2ccccc2F)c2cc(Cl)ccc2NC1=O` [Example 1-4] was tested, and the “loss of righting reflex (LRR)” value (male Wistar rats) was “producing loss-of-righting” and the Ki [1, 2] was 101 to 1000 nM.

`O=C(CC[C@@H]1N=C(c2ccccc2F)c2cc(Cl)ccc2NC1=O)OCc1ccccc1` [Example 1-5] was tested, and the “loss of righting reflex (LRR)” value (male Wistar rats) was “producing loss-of-righting” and the Ki [1, 2] was 1 to 50 nM.

For `O=C(CC[C@@H]1N=C(c2ccccc2F)c2cc(Cl)ccc2NC1=O)OCc1ccccc1` [Example 1-6], the “loss of righting reflex (LRR)” value (male Wistar rats) was “producing loss-of-righting” and the Ki [1, 2] was 101 to 1000 nM.

With `COC(=O)CC[C@@H]1N=C(c2ccccc2Cl)c2cc(Cl)ccc2NC1=O` [Example 1-7] the “loss of righting reflex (LRR)” value (male Wistar rats) was “producing loss-of-righting” and the Ki [1, 2] was 1 to 50 nM.

In the case of `COC(=O)CCC[C@@H]1N=C(c2ccccc2F)c2cc(Cl)ccc2NC1=O` [Example 1-8], the Ki [1, 2] is reported as 1 to 50 nM.

With `O=C(CC[C@@H]1N=C(c2ccccn2)c2cc(Cl)ccc2NC1=O)OCc1ccccc1` [Example 1-9] the “loss of righting reflex (LRR)” value (male Wistar rats) was “producing loss-of-righting” and the Ki [1, 2] was 101 to 1000 nM.

`COC(=O)CC[C@@H]1N=C(c2ccccn2)c2cc(Br)ccc2NC1=O` [Example 1-10] gave a Ki [1, 2] of 51 to 100 nM.

For `COC(=O)CC[C@@H]1N=C(c2ccccn2)c2cc(Cl)ccc2NC1=O` [Example 1-11], the “loss of righting reflex (LRR)” value (male Wistar rats) was “producing loss-of-righting” and the Ki [1, 2] was 101 to 1000 nM.

`COC(=O)CCC[C@@H]1N=C(c2ccccc2F)c2cc([N+](=O)[O-])ccc2NC1=O` [Example 1-13] gave a Ki [1, 2] of 1 to 50 nM.

`CCCOC(=O)CC[C@@H]1N=C(c2ccccn2)c2cc(Cl)ccc2NC1=O` [Example 1-14] gave a Ki [1, 2] of 101 to 1000 nM.

Work on `CCOC(=O)CC[C@@H]1N=C(c2ccccn2)c2cc(Cl)ccc2NC1=O` [Example 1-15] yielded a Ki [1, 2] of 101 to 1000 nM.

In the case of `CCCCOC(=O)CC[C@@H]1N=C(c2ccccc2F)c2cc(Cl)ccc2NC1=O` [Example 1-17], the “loss of righting reflex (LRR)” value (male Wistar rats) is reported as “producing loss-of-righting” and the Ki [1, 2] is reported as 101 to 1000 nM.

For `CCCCOC(=O)CC[C@@H]1N=C(c2ccccn2)c2cc(Cl)ccc2NC1=O` [Example 1-18], the Ki [1, 2] was 101 to 1000 nM.

`CC(C)COC(=O)CC[C@@H]1N=C(c2ccccn2)c2cc(Cl)ccc2NC1=O` [Example 1-19] gave a Ki [1, 2] of 101 to 1000 nM.

`CCOC(=O)C[C@@H]1N=C(c2ccccc2F)c2cc(Cl)ccc2NC1=O` [Example 1-20] showed a Ki [1, 2] of 1 to 50 nM.

For `CC(C)OC(=O)CC[C@@H]1N=C(c2ccccc2F)c2cc(Cl)ccc2NC1=O` [Example 1-21], the Ki [1, 2] was 1 to 50 nM.

Work on `CCN(CC)CCN1C(=O)[C@H](CCC(=O)OC)N=C(c2ccccc2F)c2cc(Cl)ccc21` [Example 1-22] yielded a Ki [1, 2] of 101 to 1000 nM.

For `COC(=O)CC[C@@H]1N=C(c2ccccc2F)c2cc(Cl)ccc2N(C)C1=O` [Example 1-23], the “loss of righting reflex (LRR)” value (male Wistar rats) was “producing loss-of-righting” and the Ki [1, 2] was 1 to 50 nM.

`CN1C(=O)[C@H](CC(=O)OCc2ccccc2)N=C(c2ccccc2F)c2cc(Cl)ccc21` [Example 1-24] gave a Ki [1, 2] of 51 to 100 nM.

Work on `CCN(CC)CCN1C(=O)[C@H](CCC(=O)OCc2ccccc2)N=C(c2ccccc2F)c2cc(Cl)ccc21` [Example 1-25] yielded a Ki [1, 2] of 51 to 100 nM.

`COC(=O)CNC1N=C(c2ccccc2Cl)c2cc(Cl)ccc2NC1=O` (stereo not drawn) [Example 1-26] gave a Ki [1, 2] of 51 to 100 nM.

In the case of `COC(=O)CCNC1N=C(c2ccccc2Cl)c2cc(Cl)ccc2NC1=O` (stereo not drawn) [Example 1-27], the Ki [1, 2] is reported as 1 to 50 nM.

`COC(=O)CC[C@H]1C(=O)Nc2ccc(Cl)cc2C(c2ccccc2F)=[N+]1[O-]` [Example 1-31] was tested, and the Ki [1, 2] was 51 to 100 nM.

For `CNC1=Nc2ccc(Cl)cc2C(c2ccccc2F)=N[C@H]1CCC(=O)OC` [Example 1b-1], the “loss of righting reflex (LRR)” value (male Wistar rats) was “producing loss-of-righting” and the Ki [1, 2] was 51 to 100 nM.

Compound `CCNC1=Nc2ccc(Cl)cc2C(c2ccccc2F)=N[C@H]1CCC(=O)OC` [Example 1b-3] has a Ki [1, 2] of 101 to 1000 nM.

Work on `COC(=O)CC[C@@H]1N=C(c2ccccc2F)c2cc(Cl)ccc2N=C1NCc1ccccc1` [Example 1b-4] yielded a Ki [1, 2] of 101 to 1000 nM.

`COC(=O)CC[C@@H]1N=C(c2ccccc2F)c2cc(Cl)ccc2N=C1NCc1ccncc1` [Example 1b-5] was tested, and the Ki [1, 2] was greater than 1000 nM.

In the case of `COC(=O)CC[C@@H]1N=C(c2ccccc2F)c2cc(Cl)ccc2N=C1NCCc1ccncc1` [Example 1b-6], the Ki [1, 2] is reported as 101 to 1000 nM.

`COC(=O)CC[C@@H]1N=C(c2ccccc2F)c2cc(Cl)ccc2N=C1NCC(C)C` [Example 1b-7] gave a Ki [1, 2] greater than 1000 nM.

`COC(=O)CC[C@@H]1N=C(c2ccccc2F)c2cc(Cl)ccc2N=C1NCCc1c[nH]cn1` [Example 1b-8] showed a Ki [1, 2] of 101 to 1000 nM.

For `COC(=O)CC[C@@H]1N=C(c2ccccc2F)c2cc(Cl)ccc2N=C1NCCO` [Example 1b-9], the Ki [1, 2] was 101 to 1000 nM.

`CNC1=Nc2ccc(Br)cc2C(c2ccccc2F)=N[C@H]1CCC(=O)OC` [Example 1b-10] was tested, and the “loss of righting reflex (LRR)” value (male Wistar rats) was “producing loss-of-righting” and the Ki [1, 2] was 1 to 50 nM.

With `COC(=O)CC[C@@H]1N=C(c2ccccc2F)c2cc(Cl)ccc2-n2ccnc21` [Example 1c-1] the “loss of righting reflex (LRR)” value (male Wistar rats) was “producing loss-of-righting” and the Ki [1, 2] was 1 to 50 nM.

With `COC(=O)CC[C@@H]1N=C(c2ccccc2F)c2cc(Cl)ccc2-n2c(C)cnc21` [Example 1c-2] the “loss of righting reflex (LRR)” value (male Wistar rats) was “producing loss-of-righting” and the Ki [1, 2] was 1 to 50 nM.

`COC(=O)CC[C@@H]1N=C(c2ccccc2F)c2cc(Cl)ccc2-n2cc(C)nc21` [Example 1c-3] was tested, and the “loss of righting reflex (LRR)” value (male Wistar rats) was “producing loss-of-righting” and the Ki [1, 2] was 1 to 50 nM.

With `COC(=O)CC[C@@H]1N=C(c2ccccc2F)c2cc(Cl)ccc2-n2cc(CO)nc21` [Example 1c-4] the Ki [1, 2] was 1 to 50 nM.

In the case of `COC(=O)CC[C@@H]1N=C(c2ccccc2F)c2cc(Cl)ccc2-n2c(CO)cnc21` [Example 1c-5], the Ki [1, 2] is reported as 1 to 50 nM.

In the case of `COC(=O)CC[C@@H]1N=C(c2ccccn2)c2cc(Cl)ccc2-n2ccnc21` [Example 1c-6], the “loss of righting reflex (LRR)” value (male Wistar rats) is reported as “producing loss-of-righting” and the Ki [1, 2] is reported as 51 to 100 nM.

`COC(=O)CC[C@@H]1N=C(c2ccccn2)c2cc(Cl)ccc2-n2c(C)cnc21` [Example 1c-7] was tested, and the “loss of righting reflex (LRR)” value (male Wistar rats) was “producing loss-of-righting” and the Ki [1, 2] was 51 to 100 nM.

`COC(=O)CC[C@@H]1N=C(c2ccccn2)c2cc(Br)ccc2-n2c(C)cnc21` [Example 1c-8, Methyl 3-[(4S)-8-bromo-1-methyl-6-(2-pyridinyl)-4H-imidazo[1,2-a][1,4]benzodiazepin-4-yl]propanoate] was tested, and the “loss of righting reflex (LRR)” value (male Wistar rats) was “producing loss-of-righting” and the Ki [1, 2] was 1 to 50 nM.

`COC(=O)CC[C@@H]1N=C(c2ccccn2)c2cc(Br)ccc2-n2cc(C)nc21` [Example 1c-9] gave a Ki [1, 2] of 1 to 50 nM.

For `COC(=O)CC[C@@H]1N=C(c2ccccn2)c2cc(Cl)ccc2-n2cc(C)nc21` [Example 1c-10], the “loss of righting reflex (LRR)” value (male Wistar rats) was “producing loss-of-righting” and the Ki [1, 2] was 51 to 100 nM.

For `COC(=O)CC[C@@H]1N=C(c2ccccn2)c2cc(Cl)ccc2-n2cc(CO)nc21` [Example 1c-11], the Ki [1, 2] was 101 to 1000 nM.

In the case of `COC(=O)CC[C@@H]1N=C(c2ccccn2)c2cc(Cl)ccc2-n2c(CO)cnc21` [Example 1c-12], the Ki [1, 2] is reported as 101 to 1000 nM.

In the case of `COC(=O)CC[C@@H]1N=C(c2ccccn2)c2cc(Cl)ccc2-n2c1nc(C)c2C` [Example 1c-13], the Ki [1, 2] is reported as 101 to 1000 nM.

For `COC(=O)CC[C@@H]1N=C(c2ccccc2Cl)c2cc(Cl)ccc2-n2c(C)nnc21` [Example 1c-14], the “loss of righting reflex (LRR)” value (male Wistar rats) was “producing loss-of-righting” and the Ki [1, 2] was 1 to 50 nM.

`COC(=O)CC[C@@H]1N=C(c2ccccc2F)c2cc(Cl)ccc2-n2c(C)nnc21` [Example 1c-15] was tested, and the “loss of righting reflex (LRR)” value (male Wistar rats) was “producing loss-of-righting” and the Ki [1, 2] was 1 to 50 nM.

Work on `Cc1nnc2n1-c1ccc(Cl)cc1C(c1ccccc1F)=N[C@H]2CCC(=O)OCC(C)C` [Example 1c-16] yielded a Ki [1, 2] of 1 to 50 nM.

With `COC(=O)CC[C@@H]1N=C(c2ccccc2F)c2cc(Cl)ccc2-n2cncc21` [Example 1c-17] the “loss of righting reflex (LRR)” value (male Wistar rats) was “producing loss-of-righting” and the Ki [1, 2] was 101 to 1000 nM.

In the case of `COC(=O)CC[C@@H]1N=C(c2ccccc2F)c2cc(Cl)ccc2-n2cc(COC(C)(C)C)nc21` [Example 1c-19], the Ki [1, 2] is reported as 1 to 50 nM.
